Data set [1] deals with breast MDA-MB-435. Put plainly: COMPARE screening (NCI human cancer cell line screen), cytotoxicity GI50. Type of data set: cell-based.
Data set [2] has as its system prostate DU-145. Described as above. Type of data set: cell-based. Put shortly:
(§1)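 Cells of the NCI60 panel were exposed to compound at 100, 10, 1, 0.1 and 0.01 μM for 48 h, then stained with sulforhodamine B. Optical density relative to control was plotted as percentage growth versus log10 concentration.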

Data set [3] relates to colon HCT-116. Described as above. In kind it is cell-based. The method in brief:
as §1

Data set [4] has as its system ovarian OVCAR-3. Described as above. In kind it is cell-based. The method in brief:
as §1

Data set [5] concerns CNS SF-539. Described as above. Type of data set: cell-based. Put shortly: as §1
For data set [6], the system named is renal SN12C. The data set is described as above. Type of data set: cell-based. Put shortly:
as §1

In data set [7] the test system is lung HOP-62. The description is as above. Type of data set: cell-based. Put shortly: as §1
The subject of data set [8] is melanoma UACC-62. Described as above. In kind it is cell-based. Put shortly:
as §1

For data set [9], the system named is all human cancer cell lines successfully tested. As to the kind of experiment: NCI screen mean graph midpoint (MGM) for growth inhibition. Type of data set: cell-based. The method in brief: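 NCI60 panel cells exposed to compound at 100, 10, 1, 0.1 and 0.01 μM for 48 h, then sulforhodamine B staining. Percentage growth versus control plotted against log concentration; MGM is the midpoint across all lines tested.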

Data set [10] deals with panel of twelve human tumor cell lines. Put plainly: Hollow fiber assay. In kind it is in vivo. The arrangement: key to IP Score / SC score / Total score: 2 points each time viable cell mass falls ≥50% vs vehicle controls; key to Cell kill: A net cell kill at one or more implant sites is indicated with a Y. The following applies: for IP Score: intraperitoneal fibers in athymic nude mice, score 2 per 50% or greater reduction in viable cell mass; for IP Score / SC score: compounds IP once daily, four doses, two dose levels; for SC score: subcutaneous fibers in athymic nude mice; for Total score: sum of IP and SC scores; for Cell kill: net cell kill at one or more implant sites. The method, then:
Hollow Fiber Activity. […] The effects of the compounds on the reduction of viable cancer cell mass compared to those of controls were determined. Each compound was tested in the hollow fiber assay against a panel of twelve human tumor cell lines as described previously; see, Hollingshead, M.; Plowman, J.; Alley, M.; Mayo, J.; Sausville, E., The Hollow Fiber Assay. Contrib. Oncol. 1999, 54, 109-120; and Plowman, J.; Camalier, R.; Alley, M.; Sausville, E.; Schepartz, S. Contrib. Oncol. […] The compounds were solubilized in 10% DMSO in saline/Tween-80® and administered intraperitoneally once daily for a total of four doses at each of two dose levels. The two doses were selected based on single dose toxicity studies for each derivative. A score of 2 was assigned each time the compound produced a 50% or greater reduction in viable cell mass compared to vehicle-treated controls. The score for each compound was summed for the intraperitoneal fibers and the subcutaneous fibers to provide the total score for each derivative as shown in Table 3 and Table 4. For comparative purposes, the score for the clinically used anticancer drug paclitaxel is provided.

Where [11] appears, read: all human cancer cell lines successfully tested.
Where [12] appears, read: Table 1, average GI50 of all cell lines tested (approximately 55), test range 10^−8 to 10^−4 molar.
The mark [13] stands for this setting: Table 1, concentration corresponding to 50% growth inhibition, read-out: cytotoxicity (GI50) ovarian OVCAR-3.
[14] abbreviates: breast MDA-MB-435, concentration corresponding to 50% growth inhibition, read-out: cytotoxicity (GI50 in μM) breast MDA-MB-435.
[15] abbreviates: colon HCT-116, concentration corresponding to 50% growth inhibition, read-out: cytotoxicity (GI50 in μM) colon HCT-116.
The mark [16] stands for this setting: ovarian OVCAR-3, concentration corresponding to 50% growth inhibition, read-out: cytotoxicity (GI50 in μM) ovarian OVCAR-3.
Where [17] appears, read: CNS SF-539, concentration corresponding to 50% growth inhibition, read-out: cytotoxicity (GI50 in μM) CNS SF-539.
Where [18] appears, read: renal SN12C, concentration corresponding to 50% growth inhibition, read-out: cytotoxicity (GI50 in μM) renal SN12C.
[19] abbreviates: lung HOP-62, concentration corresponding to 50% growth inhibition, read-out: cytotoxicity (GI50 in μM) lung HOP-62.
The mark [20] stands for this setting: melanoma UACC-62, concentration corresponding to 50% growth inhibition, read-out: cytotoxicity (GI50 in μM) melanoma UACC-62.

Read-outs that look alike come from different tables or passages of the source. A value given as a limit tells only on which side of the number the result lay.

For the compound `O=C(O)C(F)(F)F.O=C(O)C(F)(F)F.O=C(O)C(F)(F)F.O=C1c2ccccc2-c2c1c1ccccc1c(=O)n2CCNCCNCCNCCn1c2c(c3ccccc3c1=O)C(=O)c1ccccc1-2` [Compound 14i, Bis{(5,6-dihydro-5,11-diketo-11H-indeno[1,2-c]isoquinoline)-6-ethylamino-ethyl}amine Tris(trifluoroacetate)], the GI50 came to 1 µM in data set [1]; 0.331 µM in data set [2]; 0.112 µM in data set [3]; 1.15 µM in data set [4]; 0.275 µM in [5]; 0.017 µM in data set [6]. Moreover, the values for the GI50 in data set [7] and in data set [8] were 0.048 µM and 0.269 µM, respectively. For the same compound, the “MGM (mean graph midpoint for growth inhibition)” value in [9] (setting [11]) was 0.474 ± 0.143 µM. Also, the “IP Score” value in data set [10] (Table 4) came out at 10. The compound further registered an SC score in [10] (Table 4) of 6. In data set [10] (Table 4), this compound came in with a Total score of 16.

Regarding `COc1cc2c3c(n(CCCN4CCN(CCO)CC4)c(=O)c2cc1OC)-c1cc2c(cc1C3=O)OCO2` [Compound 5w, 3-[(1-Hydroxyethyl-piperazine)-1-propyl]-5,6-dihydro-2,3-dimethoxy-8,9-methylenedioxy-5,11-dioxo-11H-indeno[1,2-c]isoquinoline], the GI50 is more than 100 µM in data set [1]; 0.275 µM in data set [2]; 2.34 µM in data set [3]; 15.1 µM in data set [4]; 1.44 µM in [5]; more than 100 µM in data set [6]. Also, the GI50 was found to be 9.77 µM in data set [7] and 1.23 µM in [8]. Besides, the “MGM (mean graph midpoint for growth inhibition)” value in data set [9] (setting [12]) came out at 7.86 ± 0.27 µM. Moreover, in [10] (Table 3), the “IP Score” value amounted to 8. This compound yielded an SC score in [10] (Table 3) of 0. The compound also came in with a Total score in data set [10] (Table 3) of 8.

As for `COc1cc2c3c(n(CCCN4CCCNCC4)c(=O)c2cc1OC)-c1cc2c(cc1C3=O)OCO2.Cl.Cl` [Compound 5v, 6-(3-Homopiperazinyl-1-propyl)-5,6-dihydro-2,3-dimethoxy-8,9-methylenedioxy-5,11-dioxo-11H-indeno[1,2-c]isoquinoline Dihydrochloride], the GI50 in data set [1] turned out to be 2.63 µM; in [2], 0.081 µM; in data set [3], 0.214 µM; in [4] (setting [13]), 5.01 µM; in data set [5], 0.145 µM; in data set [6], 0.145 µM. The figures for the GI50 in [7] and in data set [8] were less than 0.005 µM and 0.457 µM, respectively. Further, the “MGM (mean graph midpoint for growth inhibition)” value in data set [9] (setting [12]) worked out at 0.715 ± 0.335 µM. Further, the “IP Score” value in data set [10] (Table 3) was found to be 12. This compound also gave an SC score in data set [10] (Table 3) of 2. This compound yielded a Total score in [10] (Table 3) of 14.

Consider `O=C(O)C(F)(F)F.O=C(O)C(F)(F)F.O=C1c2ccccc2-c2c1c1ccccc1c(=O)n2CCNCCCNCCn1c2c(c3ccccc3c1=O)C(=O)c1ccccc1-2` [Compound 14d, Bis-1,3-{(5,6-dihydro-5,11-diketo-11H-indeno[1,2-c]isoquinoline)-6-ethylamino}propane Bis(trifluoroacetate)], for which the GI50 is 0.024 µM in data set [1] (setting [14]); 0.079 µM in data set [2] (prostate DU-145, concentration corresponding to 50% growth inhibition, read-out: cytotoxicity (GI50 in μM) prostate DU-145); less than 0.005 µM in [3] (setting [15]); 0.093 µM in [4] (setting [16]); 0.155 µM in data set [5] (setting [17]); less than 0.005 µM in data set [6] (setting [18]). In addition, the GI50 in [7] (setting [19]) was 0.339 µM; in data set [8] (setting [20]), 0.182 µM. In [9] (setting [11]), the “MGM (mean graph midpoint for growth inhibition)” value is 0.122 ± 0.064 µM. In data set [10] (Table 4), the “IP Score” value turned out to be 2. Further, the SC score in data set [10] (Table 4) is listed as 4. Further, the Total score in data set [10] (Table 4) is on record as 6.

With `COc1cc2c3c(n(CCCN4CCNCC4)c(=O)c2cc1OC)-c1cc2c(cc1C3=O)OCO2.Cl.Cl` [Compound 5p, 6-(3-Piperazinyl-1-propyl)-5,6-dihydro-2,3-dimethoxy-8,9-methylenedioxy-5,11-dioxo-11H-indeno[1,2-c]isoquinoline Dihydrochloride], the GI50 in data set [1] is 4.57 µM; in data set [2], 0.015 µM; in [3] it was 0.575 µM; in [4] (setting [13]), 2.04 µM; in data set [5], less than 0.005 µM; in data set [6], 0.091 µM. The GI50 in data set [7] is less than 0.005 µM; in data set [8] it was 1.2 µM. The “MGM (mean graph midpoint for growth inhibition)” value in data set [9] (setting [12]) was found to be 0.382 ± 0.119 µM. Also, the “IP Score” value in data set [10] (Table 3) is on record as 16. This compound also displayed an SC score in [10] (Table 3) of 2. The compound also had a Total score in data set [10] (Table 3) of 18.

As for `O=C(O)C(F)(F)F.O=C(O)C(F)(F)F.O=C1c2ccccc2-c2c1c1ccccc1c(=O)n2CCCNCCCNCCCn1c2c(c3ccccc3c1=O)C(=O)c1ccccc1-2` [Compound 14g, Bis-1,3-{(5,6-dihydro-5,11-diketo-11H-indeno[1,2-c]isoquinoline)-6-propylamino}propane Bis(trifluoroacetate)], the GI50 was 0.107 µM in data set [1] (setting [14]); less than 0.01 µM in data set [3] (setting [15]); 0.074 µM in data set [4] (setting [16]); 0.011 µM in data set [5] (setting [17]); less than 0.01 µM in data set [6] (setting [18]); less than 0.01 µM in data set [7] (setting [19]). Moreover, the GI50 in data set [8] (setting [20]) is 0.042 µM. The “MGM (mean graph midpoint for growth inhibition)” value in data set [9] (setting [11]) is 0.394 ± 0.33 µM. The “IP Score” value in data set [10] (Table 4) is recorded as 26. Further, the SC score in data set [10] (Table 4) worked out at 6. This compound yielded a Total score in data set [10] (Table 4) of 32.

For `O=C(O)C(F)(F)F.O=C(O)C(F)(F)F.O=C1c2ccccc2-c2c1c1ccccc1c(=O)n2CCCNCCCCNCCCn1c2c(c3ccccc3c1=O)C(=O)c1ccccc1-2` [Compound 14h, Bis-1,4-{(5,6-dihydro-5,11-diketo-11H-indeno[1,2-c]isoquinoline)-6-propylamino}butane Bis(trifluoroacetate)], the GI50 in [1] is 0.676 µM; in data set [2], 0.234 µM; in data set [3], less than 0.005 µM; in data set [4] it was 0.135 µM; in data set [5] it was 0.251 µM; in data set [6], less than 0.005 µM. In addition, the results for the GI50 in [7] and in data set [8] were 0.525 µM and 0.562 µM, respectively. For the same compound, the “MGM (mean graph midpoint for growth inhibition)” value in data set [9] (setting [11]) worked out at 0.225 ± 0.084 µM. Further, the “IP Score” value in data set [10] (Table 4) was found to be 12. Further, the SC score in data set [10] (Table 4) came out at 4. The compound further displayed a Total score in data set [10] (Table 4) of 16.

Turning to `CC(=O)O[C@H]1C(=O)[C@@]2(C)[C@H]([C@H](OC(=O)c3ccccc3)[C@]3(O)C[C@H](OC(=O)[C@H](O)[C@@H](NC(=O)c4ccccc4)c4ccccc4)C(C)=C1C3(C)C)[C@]1(OC(C)=O)CO[C@@H]1C[C@@H]2O` [Paclitaxel, paclitaxel, reference compound], in data set [10] (Table 3), the “IP Score” value is 24, the Cell kill entry is recorded as “Y”, the SC score is recorded as 8 and the Total score was 32. Moreover, in data set [10] (Table 4), the “IP Score” value was 24, the Cell kill entry was “Y”, the SC score turned out to be 8 and the Total score amounted to 32.

With `COc1cc2c3c(n(CCCN4CCCC(O)C4)c(=O)c2cc1OC)-c1cc2c(cc1C3=O)OCO2.Cl` (stereo not shown) [Compound 5s, 6-[3-(3-Hydroxypiperidinyl)-1-propyl]-5,6-dihydro-2,3-dimethoxy-8,9-methylenedioxy-5,11-dioxo-11H-indeno[1,2-c]isoquinoline Hydrochloride], the GI50 in data set [1] is 0.977 µM; in [2] it was less than 0.005 µM; in data set [3], less than 0.005 µM; in data set [4] (setting [13]), 5.75 µM; in [5], less than 0.005 µM; in data set [6], 0.126 µM. Moreover, the GI50 in [7] is less than 0.005 µM; in data set [8], 5.01 µM. Further, the “MGM (mean graph midpoint for growth inhibition)” value in [9] (setting [12]) was determined as 0.243 ± 0.088 µM. In data set [10] (Table 3), the “IP Score” value is recorded as 6. The compound further had an SC score in data set [10] (Table 3) of 0. In addition, the Total score in data set [10] (Table 3) was 6.

The values above are taken from patent US9796753B2, “N-substituted indenoisoquinolines and syntheses thereof” (Purdue Research Foundation, priority 2005, dated 2017).
